According to PMC5201116, “Bioactive Flavonoids and Catechols as Hif1 and Nrf2 Protein Stabilizers - Implications for Parkinson’s Disease” (Aging and Disease, 2016):
Like-named read-outs stand apart in the source and are kept apart here.

Legend:
[1] = Iron binding constant, calcein displacement assay; format: physicochemical; details: for Iron complex Diss. Const: calcein displacement
Text: Calcein displacement assay in the presence of varied concentrations of flavonoids and catechols has been used. Calcein release from its complex with iron was monitored by fluorescence as described in [26].

[2] = Non-enzymatic ferricyanide reduction rate constant; format: physicochemical; details: 1 mM ferricyanide, pH 7.0
Experimental: The rate of ferricyanide reduction by individual flavonoids was measured spectrophotometrically at 420 nm with the fixed concentration of ferricyanide (1 mM) and varied concentrations of a flavonoid in Potassium-phosphate buffer, pH 7.0. The rate constant for direct ferricyanide reduction was calculated from the slope of the dependence reaction rate vs flavonoid concentration and used as a measure of flavonoid non-specific reducing power.

[3] = test system: Neh2-luc reporter (SH-SY5Y cell line); assay: Neh2-luc reporter assay; format: cell-based; details: for Neh2-luc fold activation / fold induction at 10 µM: at 10 µM, 3 h incubation; for EC50: Neh2-luc; for fold induction at 10 µM: read-out: Neh2-luc fold activation
Experimental: (§1) SH-SY5Y cell lines stably expressing HIF1 ODD-luc or Neh2-luc reporters were grown in the DMEM/F12 supplemented with GlutaMAX (Thermo Fisher Scientific) containing 10% FBS, 100 U/ml penicillin, and 100 μg/ml streptomycin and plated into 384-well white flat-bottom plates at 7,000 cell/well in 30 µl serum and incubated overnight at 37°C, 5% CO2. The next day compounds were added to a final concentration of 10 µM and the plates were incubated for 3 hours at 37°C. Reporter activation after 3 h incubation with the studied compound was compared to that for ciclopirox (HIF1 ODD-luc reporter) or TBHQ (Neh2-luc reporter), taken as 100%. Luciferase reporter activity was measured with a SteadyGlo reagent from Promega providing stable reading for 1 h.
(§2) Cells were plated at the density of 25,000 cell per well using a WellMate multichannel dispenser from Matrix (Thermo Fisher Scientific, Waltham, MA) and grown overnight on DMEM/F12+GlutaMAX (100 µl per well). Then an inhibitor was added, and the plates were incubated for a fixed time interval; the medium was removed, cells lysed, and luciferase activity was measured on a SpectraMax M5e platereader (Molecular Devices, Sunnyvale, CA) with BrightGlo™ reagent (Promega, Madison, WI). The reporter activation was normalized to the background luminescence. The effect of 0.5 mM N-acetylcysteine (NAC) was studied by simultaneous addition of 5 µL of 10 mM stock of NAC in water and 2 µL of 50x stock solutions of a flavonoid in DMSO.

[4] = test system: HIF1 ODD-luc reporter (SH-SY5Y cell line); assay: HIF1 ODD-luc reporter assay; format: cell-based; details: for fold induction at 10 µM: Homo sapiens, SH-SY5Y, 3 h, read-out: ODD-luc fold activation; for fold induction at 10 µM / ODD-luc fold activation: 3 h incubation, at 10 µM
Experimental: as §1, §2

[5] = test system: HRE-luciferase reporter (HT22 hippocampal cell line); assay: HRE-luc reporter assay; format: cell-based; details: for fold induction at 10 µM: Mus musculus, HT-22, 3 h, read-out: HRE-luc fold activation; for fold induction at 10 µM / HRE-luc fold activation: at 10 µM
Text: A promoter-reporter construct that contained 68 bp of a known hypoxia and HIF-1 regulated gene, enolase, containing a wild type hypoxia response element (HRE, 5’-RCTGT-3’), is a widely used approach for screening for HIF activators of different mechanism of action. A cell-based assay with HRE-luciferase reporter system is based on transfected immortalized hippocampal cell line (HT22) and allows screening for a broad spectrum of compounds that include: activators of HIF transcription; activators of HIF binding to HRE; and effectors of HIF protein stability (PHD inhibitors, pVHL & proteasome inhibitors). The assay was performed the same way as for HIF ODD-luc reporter except the cells were plated at the density of 10,000 cell per well and incubated overnight.

[6] = design: method as in PMID 17112238; details: cited from earlier work

With `O=c1c(O)c(-c2ccccc2)oc2ccccc12` [compound 1, 3-Hydroxyflavone] the “Iron complex Diss. Const” value [1] was 2.0 ± 0.2 µM, the “Iron complex Diss. Const” value ([1]; listed as 3-Hydroxyflavone) was “ca. 2 µM” and the “FC red Rate Const” value [2] was “inactive”. The Neh2-luc fold activation [3] was “inactive”, the Neh2-luc fold activation ([3]; listed as 3-hydroxyflavone) was “completely inactive” and the fold induction at 10 µM [4] was 1.5 ± 0.2. For the same compound, the fold induction at 10 µM [5] was 1.5 ± 0.2.
With `COc1ccc2c(=O)c(O)c(-c3ccccc3)oc2c1` [compound 5, 3-Hydroxy-7-methoxy-] the “Iron complex Diss. Const” value [1] was 5.0 ± 0.5 µM, the “Iron complex Diss. Const” value ([1]; listed as 3-hydroxy-7-methoxyflavone) was “ca. 5 µM” and the Neh2-luc fold activation [3] was “Inactive”. The ODD-luc fold activation [4] was “Inactive” and the HRE-luc fold activation [5] was “Inactive”.
For `O=c1c(-c2ccc(O)cc2)coc2cc(O)ccc12` [compound 26, Daidzein], the “Iron complex Diss. Const” value [1] was “Inactive”, the Neh2-luc fold activation [3] was “Inactive” and the Neh2-luc fold activation ([3]; listed as daidzein) was “not”. For the same compound, the ODD-luc fold activation [4] was “Inactive”, the ODD-luc fold activation ([4]; listed as daidzein) was “did not cause any activation effect” and the HRE-luc fold activation [5] was “Inactive”.
For `O=c1c(O)c(-c2ccc(O)cc2O)oc2cc(O)cc(O)c12` [compound 12, Morin], the EHOMO [6] is listed as -8.81 eV, the “Iron complex Diss. Const” value [1] is listed as 2.5 ± 0.3 µM and the Neh2-luc fold activation [3] is listed as “Inactive”. The Neh2-luc fold activation ([3]; listed as morin) was “completely inactive”, the ODD-luc fold activation [4] was “Inactive” and the fold induction at 10 µM [5] was 1.3 ± 0.2.
For `O=C(NO)c1ccc(O)c(O)c1` [compound 33, 3,4-Dihydroxy-benzohydroxamate], the “Iron complex Diss. Const” value [1] was 1.5 ± 0.3 µM, the EC50 [3] was 100 µM and the Neh2-luc fold activation [3] was “Inactive”. For the same compound, the “ODD-luc: concentration above which active” value [4] was “Active above 100 µM”, the “ODD-luc: concentration above which active” value ([4]; listed as Didox) was “above 100 µM” and the “HRE-luc: concentration above which active” value [5] was “Active above 100 µM”.
In the case of `O=c1c(O)c(-c2ccccc2)oc2cc(O)cc(O)c12` [compound 8, Galangin], the EHOMO [6] is given as -8.90 eV, the “Iron complex Diss. Const” value [1] is given as 3.5 ± 0.4 µM and the “FC red Rate Const” value [2] is given as 48000 ± 6000 M⁻¹ s⁻¹. For the same compound, the Neh2-luc fold activation [3] was “Inactive”, the ODD-luc fold activation [4] was “Inactive” and the fold induction at 10 µM [5] was 1.3 ± 0.2.
In the case of `O=c1c(O)c(-c2ccc(O)cc2)oc2cc(O)cc(O)c12` [compound 9, Kaempferol], the EHOMO [6] is listed as -8.74 eV, the “Iron complex Diss. Const” value [1] is listed as 2.5 ± 0.3 µM and the “FC red Rate Const” value [2] is listed as 369000 ± 42000 M⁻¹ s⁻¹. The EC50 ([3]; Homo sapiens, SH-SY5Y) was 5 µM, the fold induction at 10 µM ([3]; Homo sapiens, SH-SY5Y) was 15 ± 2 and the “drop in Neh2-luc reporter activation with NAC” value ([3]; simultaneous addition of 0.5 mM NAC, results not shown) was 2 fold. The ODD-luc fold activation [4] was “Inactive” and the fold induction at 10 µM [5] was 1.5 ± 0.2.
For `O=c1c(-c2ccc(O)cc2)coc2cc(O)cc(O)c12` [compound 24, 5-Hydroxy-daidzein], the HRE-luc fold activation [5] was “Inactive”.
In the case of `O=c1cc(-c2ccccc2)oc2c(O)c(O)ccc12` [compound 20, 7,8-Dihydroxyflavone], the EHOMO [6] is listed as -9.23 eV, the iron dissociation constant [1] is listed as “ca. 700 nM” and the “Iron complex Diss. Const” value [1] is listed as 0.7 ± 0.1 µM. For the same compound, the Neh2-luc fold activation [3] was “Inactive”, the fold induction at 10 µM [4] was 1.5 ± 0.2 and the fold induction at 10 µM [5] was 3.6 ± 0.4.
For `O=c1cc(-c2ccc(O)cc2)oc2cc(O)cc(O)c12` [compound 16, Apigenin], the EHOMO [6] is given as -9.15 eV, the “Iron complex Diss. Const” value [1] is given as “Inactive” and the Neh2-luc fold activation [3] is given as “Inactive”. The ODD-luc fold activation [4] was “Inactive” and the fold induction at 10 µM [5] was 1.3 ± 0.15.
For `O=c1c(O)c(-c2cc(O)c(O)c(O)c2)oc2cc(O)cc(O)c12` [compound 13, Myricetin], the EHOMO [6] is given as -8.80 eV, the “Iron complex Diss. Const” value [1] is given as 2.0 ± 0.2 µM and the EC50 ([3]; Homo sapiens, SH-SY5Y) is given as 2 µM. It also gave a fold induction at 10 µM ([3]; Homo sapiens, SH-SY5Y) of 25 ± 3, a fold induction at 10 µM [4] of 1.3 ± 0.2 and a fold induction at 10 µM [5] of 2 ± 0.2.
In the case of `O=c1c(O)c(-c2ccccc2)oc2cc(O)ccc12` [compound 2, 3,7-Dihydroxy-], the “Iron complex Diss. Const” value [1] is reported as 2.5 ± 0.3 µM and the “FC red Rate Const” value [2] is reported as “inactive”.
For `COc1cc(C)c2c(=O)cc(-c3ccccc3)oc2c1` [compound 21, Methoxyvone], the “Iron complex Diss. Const” value [1] was “Inactive”, the Neh2-luc fold activation [3] was “Inactive” and the ODD-luc fold activation [4] was “Inactive”. The fold induction at 10 µM [5] was 3.2 ± 0.35.
In the case of `O=c1c(-c2ccc(O)cc2)coc2cc(O)cc(O)c12` [compound 23, Genistein], the “Iron complex Diss. Const” value [1] is reported as “Inactive”, the Neh2-luc fold activation [3] is reported as “Inactive” and the ODD-luc fold activation [4] is reported as “Inactive”. It also gave a fold induction at 10 µM [5] of 1.5 ± 0.2.
For `CC(C)Oc1ccc2c(=O)c(-c3ccccc3)coc2c1` [compound 22, Ipriflavone], the “Iron complex Diss. Const” value [1] was “Inactive”, the Neh2-luc fold activation [3] was “Inactive” and the ODD-luc fold activation [4] was “Inactive”. It also gave a fold induction at 10 µM [5] of 2.5 ± 0.3.
For `O=c1c(-c2ccc(O)cc2)coc2c(O)c(O)ccc12` [compound 25, 8-Hydroxy-daidzein], the “Iron complex Diss. Const” value [1] was 1.5 ± 0.3 µM, the Neh2-luc fold activation [3] was “Inactive” and the ODD-luc fold activation [4] was “Inactive”. The HRE-luc fold activation [5] was “Inactive”.
In the case of `O=C(O)CN(CC(=O)O)Cc1cc2c(cc1O)Oc1cc(O)c(CN(CC(=O)O)CC(=O)O)cc1C21OC(=O)c2ccccc21` [compound 34, Calcein, reference compound], the “Iron complex Diss. Const” value [1] is reported as 0.05 ± 0.01 µM, the Neh2-luc fold activation [3] is reported as “Inactive” and the fold induction at 10 µM [4] is reported as 2 ± 0.25. For the same compound, the fold induction at 10 µM [5] was 1.7 ± 0.2.
With `COc1ccc2c(=O)c(OC)c(-c3ccccc3)oc2c1` [compound 6, 3,7-Dimethoxy-] the Neh2-luc fold activation [3] was “Inactive”, the ODD-luc fold activation [4] was “Inactive” and the HRE-luc fold activation [5] was “inactive”.
For `O=c1c(O)c(-c2ccccc2)oc2cccc(O)c12` [compound 7, 3,5-Dihydroxy-], the “Iron complex Diss. Const” value [1] was 2.5 ± 0.3 µM, the “FC red Rate Const” value [2] was “inactive” and the Neh2-luc fold activation [3] was “Inactive”. It also gave a fold induction at 10 µM [4] of 1.3 ± 0.2 and a fold induction at 10 µM [5] of 2 ± 0.2.
For `O=c1c(O)c(-c2ccc(O)cc2)oc2ccccc12` [compound 3, 3,4'-Dihydroxy-], the “Iron complex Diss. Const” value [1] was 2.5 ± 0.2 µM, the “FC red Rate Const” value [2] was “Inactive” and the ODD-luc fold activation [4] was “Inactive”. The HRE-luc fold activation [5] was “Inactive”.
For `COc1ccc(-c2oc3ccccc3c(=O)c2O)cc1` [compound 4, 3-Hydroxy-4'-methoxy-], the “Iron complex Diss. Const” value [1] was 4.0 ± 0.4 µM.
In the case of `O=c1cc(-c2ccccc2)oc2cc(O)cc(O)c12` [compound 15, Chrysin], the EHOMO [6] is given as -9.25 eV, the “Iron complex Diss. Const” value [1] is given as “Inactive” and the Neh2-luc fold activation [3] is given as “Inactive”. The ODD-luc fold activation [4] was “Inactive” and the fold induction at 10 µM [5] was 1.2 ± 0.15.
For `N[C@H](Cc1ccc(O)c(O)c1)C(=O)O` [compound 30, 3,4-Dihydroxy-D-phenylalanine], the “Iron complex Diss. Const” value [1] was 2.5 ± 0.3 µM, the EC50 ([3]; Homo sapiens, SH-SY5Y) was 20 µM and the Neh2-luc fold activation [3] was “Inactive”. For the same compound, the ODD-luc fold activation [4] was “Inactive” and the HRE-luc fold activation [5] was “Inactive”.
In the case of `O=c1cc(-c2ccccc2)oc2cccc(O)c12` [compound 14, 5-hydroxyflavone], the EHOMO [6] is given as -9.12 eV, the “Iron complex Diss. Const” value [1] is given as “Inactive” and the “Iron complex Diss. Const” value ([1]; listed as 5-hydroxyflavone) is given as “does not bind iron in solution”. The Neh2-luc fold activation [3] was “Inactive”, the ODD-luc fold activation [4] was “Inactive” and the HRE-luc fold activation [5] was “Inactive”.
